Laboratory results published in PMC10415124 (Nucleic Acids Research, 2023).

Experiments:
Format in all cases: binding
[1] = target: T1, HsTRPT1 (tRNA 2′-phosphotransferase 1) (Homo sapiens, UniProt Q86TN4); assay: crystal structure
T1 sequence (Q86TN4 1-253): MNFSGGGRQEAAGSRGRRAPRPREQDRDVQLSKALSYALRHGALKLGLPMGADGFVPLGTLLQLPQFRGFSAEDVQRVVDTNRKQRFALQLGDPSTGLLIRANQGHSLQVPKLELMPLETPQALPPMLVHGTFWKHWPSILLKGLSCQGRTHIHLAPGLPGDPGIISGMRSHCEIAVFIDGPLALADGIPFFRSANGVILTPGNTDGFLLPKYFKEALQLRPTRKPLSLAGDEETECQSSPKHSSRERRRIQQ

[2] = target: T2, MmTRPT1 (tRNA 2′-phosphotransferase 1) (Mus musculus, UniProt Q8K3A2); assay: crystal structure
T2 sequence (Q8K3A2 1-249): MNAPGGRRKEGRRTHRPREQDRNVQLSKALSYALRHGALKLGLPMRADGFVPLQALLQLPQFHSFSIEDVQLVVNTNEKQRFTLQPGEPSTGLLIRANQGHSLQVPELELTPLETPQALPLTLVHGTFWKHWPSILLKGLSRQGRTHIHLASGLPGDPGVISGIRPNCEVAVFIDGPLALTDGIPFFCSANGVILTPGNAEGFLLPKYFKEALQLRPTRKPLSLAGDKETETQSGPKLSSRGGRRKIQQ

[3] = target: T3, ScTRPT1 (TPT1, tRNA 2′-phosphotransferase) (Saccharomyces cerevisiae, UniProt Q12272); assay: ITC and co-crystal structure
T3 sequence (Q12272 1-230): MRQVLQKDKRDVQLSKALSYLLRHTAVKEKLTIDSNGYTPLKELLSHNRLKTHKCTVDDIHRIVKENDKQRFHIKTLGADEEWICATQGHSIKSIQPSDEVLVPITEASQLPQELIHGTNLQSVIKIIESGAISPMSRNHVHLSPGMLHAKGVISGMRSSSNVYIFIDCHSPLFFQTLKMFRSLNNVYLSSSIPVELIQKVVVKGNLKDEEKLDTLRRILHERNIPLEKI

[4] = target: T1, HsTRPT1 (tRNA 2′-phosphotransferase 1); assay: ITC
[5] = target: T2, MmTRPT1 (tRNA 2′-phosphotransferase 1); assay: ITC

Row | crystal structure [2] | Kd [3] | Kd [4] | Kd [5] | SMILES | crystal structure [1]
1 | binds to the HsTRPT1/MmTRPT1 monomer |  |  |  | Nc1ncnc2c1ncn2[C@@H]1O[C@H](COP(=O)(O)OP(=O)(O)OC[C@H]2O[C@H](OP(=O)(O)O)[C@H](O)[C@@H]2O)[C@@H](O)[C@H]1O [ADPRp] | electron density map clearly showed that one ADPRp molecule
2 |  | 23.8 ± 1.88 µM | 11.8 ± 0.32 µM | 22.3 ± 0.75 µM | NC(=O)c1ccc[n+]([C@@H]2O[C@H](COP(=O)([O-])OP(=O)(O)OC[C@H]3O[C@@H](n4cnc5c(N)ncnc54)[C@H](O)[C@@H]3O)[C@@H](O)[C@H]2O)c1 [NAD^+] | 
